Test results from US12565489B2, “Heterocyclyl pyrimidines and triazines as novel fungicides” (Bayer Aktiengesellschaft, priority 2020, dated 2026).

What was measured:
[1] = tested on: Pyricularia oryzae; experiment: microbe, parasite or virus in culture; assay type: cell-based; conditions: 120 h, read-out: efficacy (inhibition of fungal growth)
[2] = Measurement of Log P values by HPLC on reversed phase columns (EEC directive 79/831 Annex V.A8); assay type: physicochemical; conditions: LogP
Summary of the method: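 Reversed-phase HPLC per EEC directive 79/831 Annex V.A8 with UV detection, 10→95% acetonitrile linear gradient; eluent either 0.1% formic acid (acidic), 0.001 molar ammonium acetate (neutral) or 0.1% phosphoric acid (acidic). Calibrated with C3–C16 straight-chain alkan-2-ones by linear interpolation of retention times; multiple values joined by "+".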

[3] = tested on: Pyrenophora teres; experiment: Pyrenophora teres in vitro cell test; assay type: cell-based; conditions: 144 h, 20 ppm of active ingredient, 6 days incubation, liquid culture, spectrometric measurement of mycelium growth, read-out: efficacy (inhibition of fungal growth)
Summary of the method: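 Spore suspension grown in liquid glucose–peptone–yeast extract medium with compound added from DMSO solution. Mycelium growth read by absorbance after 6 days. Inhibition is relative to compound-free control wells.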

[4] = tested on: Botrytis cinerea; experiment: In vivo preventive test on Botrytis cinerea (grey mould); conditions: 500 ppm of active ingredient, preventive spray on young gherkin or cabbage plants, evaluated 4 to 5 days after inoculation, read-out: efficacy
Summary of the method: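 Gherkin or cabbage seedlings sprayed preventively with compound (DMSO/acetone/Tween 80 formulation diluted in water); controls got solvent only. Leaves inoculated 24 h later by spraying aqueous B. cinerea spore suspension.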

[5] = tested on: Sphaerotheca fuliginea; experiment: In vivo preventive test on Sphaerotheca fuliginea (powdery mildew on cucurbits); conditions: Podosphaera fuliginea, 192 h; 500 ppm of active ingredient; preventive spray on young gherkin plants; evaluated 8 days after inoculation; read-out: efficacy
Summary of the method: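 Young gherkin plants were sprayed preventively with compound dissolved in DMSO/acetone/Tween 80 and diluted in water; controls got solvent only. Leaves were inoculated 24 hours later with an aqueous Sphaerotheca fuliginea spore suspension.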

[6] = tested on: Septoria tritici; experiment: Septoria tritici in vitro cell test; assay type: cell-based; conditions: Zymoseptoria tritici, 168 h; 20 ppm of active ingredient; 7 days incubation; liquid culture, spectrometric measurement of mycelium growth; read-out: efficacy (inhibition of fungal growth)
Summary of the method: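 Liquid culture of S. tritici spore suspension in defined mineral/sucrose medium with compounds added from DMSO solutions; measures inhibition of spore germination and mycelial growth. Growth inhibition derived from absorbance relative to untreated control wells.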

[7] = tested on: Alternaria alternata; experiment: Alternaria alternata in vitro cell test; assay type: cell-based; conditions: 120 h, 20 ppm of active ingredient, 5 days incubation, liquid culture, spectrometric measurement of mycelium growth, read-out: efficacy (inhibition of fungal growth)
Summary of the method: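 Spore suspension of A. alternata in glucose/mycological peptone/yeast extract liquid medium, with compounds added from DMSO solutions at a range of concentrations. After 5 days, mycelium growth was measured spectrometrically. Inhibition was expressed relative to absorbance of fungicide-free control wells.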

[8] = tested on: Colletotrichum lindemuthianum; experiment: In vivo preventive test on Colletotrichum lindemuthianum (leaf spot on bean); conditions: 168 h, 500 ppm of active ingredient, preventive spray on young bean plants, evaluated 7 days after inoculation, read-out: efficacy
Summary of the method: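 Young bean plants sprayed with compound dissolved in DMSO/acetone/Tween 80 and diluted in water; vehicle-only plants served as controls. After 24 hours, leaves inoculated by spraying an aqueous suspension of Colletotrichum lindemuthianum spores.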

Question: For `Cc1ccc(C[C@@H]2CON=C(c3nc(C)ncc3Oc3cccc(C4CC4)c3)N2)c(C)c1` (racemic) [Compound I-024], which inhibition at 20 ppm [1] is on record?
Answer: Its inhibition at 20 ppm is 90 to 100%.

Question: What about the chromatographic logP [2] of the same molecule?
Answer: Its chromatographic logP is 4.55.

Question: What about the inhibition at 20 ppm [3] of the same molecule?
Answer: Its inhibition at 20 ppm is 90 to 100%.

Question: What about the pest or weed control at 500 ppm [4] of the same molecule?
Answer: The pest or weed control at 500 ppm was 90 to 100%.

Question: And the pest or weed control at 500 ppm [5]?
Answer: Its pest or weed control at 500 ppm is 90 to 100%.

Question: And the inhibition at 20 ppm [6]?
Answer: The inhibition at 20 ppm was 90 to 100%.

Question: What about the inhibition at 20 ppm [7] of the same molecule?
Answer: The inhibition at 20 ppm was 90 to 100%.

Question: What about the pest or weed control at 500 ppm [8] of the same molecule?
Answer: The pest or weed control at 500 ppm was 90 to 100%.

Question: Which inhibition at 20 ppm [1] does the source give for `C#Cc1cccc(Oc2cnc(C)nc2C2=NOC[C@@H](Cc3ccc(C)cc3C)N2)c1` (racemic) [Compound I-025] here?
Answer: Its inhibition at 20 ppm is 90 to 100%.

Question: What about the chromatographic logP [2] of the same molecule?
Answer: Its chromatographic logP is 3.85.

Question: What about the inhibition at 20 ppm [3] of the same molecule?
Answer: Its inhibition at 20 ppm is 90 to 100%.

Question: What about the pest or weed control at 500 ppm [4] of the same molecule?
Answer: The pest or weed control at 500 ppm was 90 to 100%.

Question: What about the pest or weed control at 500 ppm [5] of the same molecule?
Answer: The pest or weed control at 500 ppm was 90 to 100%.

Question: And the inhibition at 20 ppm [6]?
Answer: The inhibition at 20 ppm was 90 to 100%.

Question: What about the inhibition at 20 ppm [7] of the same molecule?
Answer: Its inhibition at 20 ppm is 90 to 100%.

Question: What about the pest or weed control at 500 ppm [8] of the same molecule?
Answer: Its pest or weed control at 500 ppm is 90 to 100%.

Question: With `C#Cc1ccc(CC2CON=C(c3nc(C)ncc3Oc3cccc(C(F)(F)F)c3)N2)c(C)c1` (racemic) [Compound I-026, (5RS)-5-[(4-ethynyl-2-methyl-phenyl)methyl]-3-[2-methyl-5-[3-(trifluoromethyl)phenoxy]pyrimidin-4-yl]-5,6-dihydro-4H-1,2,4-oxadiazine] as the molecule, how does the inhibition at 20 ppm [1] read?
Answer: Its inhibition at 20 ppm is 90 to 100%.

Question: And the chromatographic logP [2]?
Answer: The chromatographic logP was 3.99.

Question: And the inhibition at 20 ppm [3]?
Answer: The inhibition at 20 ppm was 90 to 100%.

Question: What about the pest or weed control at 500 ppm [4] of the same molecule?
Answer: Its pest or weed control at 500 ppm is 90 to 100%.

Question: What about the pest or weed control at 500 ppm [5] of the same molecule?
Answer: Its pest or weed control at 500 ppm is 90 to 100%.

Question: What about the inhibition at 20 ppm [6] of the same molecule?
Answer: The inhibition at 20 ppm was 90 to 100%.

Question: What about the inhibition at 20 ppm [7] of the same molecule?
Answer: Its inhibition at 20 ppm is 90 to 100%.

Question: And the pest or weed control at 500 ppm [8]?
Answer: Its pest or weed control at 500 ppm is 90 to 100%.

Question: With `Cc1ncc(Oc2cccc(C(F)(F)F)c2)c(C2=NOCC(Cc3ccc(C4CC4)cc3C)N2)n1` (racemic) [Compound I-029, (5RS)-5-[(4-cyclopropyl-2-methyl-phenyl)methyl]-3-[2-methyl-5-[3-(trifluoromethyl)phenoxy]pyrimidin-4-yl]-5,6-dihydro-4H-1,2,4-oxadiazine] as the molecule, how does the inhibition at 20 ppm [1] read?
Answer: Its inhibition at 20 ppm is 90 to 100%.

Question: And the chromatographic logP [2]?
Answer: Its chromatographic logP is 4.7.

Question: What about the inhibition at 20 ppm [3] of the same molecule?
Answer: The inhibition at 20 ppm was 90 to 100%.

Question: What about the pest or weed control at 500 ppm [4] of the same molecule?
Answer: The pest or weed control at 500 ppm was 90 to 100%.

Question: What about the pest or weed control at 500 ppm [5] of the same molecule?
Answer: The pest or weed control at 500 ppm was 90 to 100%.

Question: What about the inhibition at 20 ppm [6] of the same molecule?
Answer: Its inhibition at 20 ppm is 90 to 100%.

Question: What about the inhibition at 20 ppm [7] of the same molecule?
Answer: Its inhibition at 20 ppm is 90 to 100%.

Question: What about the pest or weed control at 500 ppm [8] of the same molecule?
Answer: The pest or weed control at 500 ppm was 90 to 100%.

Question: For `COc1cccc(Oc2cnc(C)nc2C2=NOC[C@@H](Cc3ccc(C)cc3C)N2)c1` (racemic) [Compound I-032], which inhibition at 20 ppm [1] is on record?
Answer: The inhibition at 20 ppm was 80 to 89%.

Question: And the chromatographic logP [2]?
Answer: Its chromatographic logP is 3.66.

Question: What about the inhibition at 20 ppm [3] of the same molecule?
Answer: Its inhibition at 20 ppm is 90 to 100%.

Question: What about the pest or weed control at 500 ppm [4] of the same molecule?
Answer: Its pest or weed control at 500 ppm is 90 to 100%.

Question: And the pest or weed control at 500 ppm [5]?
Answer: Its pest or weed control at 500 ppm is 90 to 100%.

Question: And the inhibition at 20 ppm [6]?
Answer: The inhibition at 20 ppm was 90 to 100%.

Question: What about the inhibition at 20 ppm [7] of the same molecule?
Answer: Its inhibition at 20 ppm is 90 to 100%.

Question: And the pest or weed control at 500 ppm [8]?
Answer: Its pest or weed control at 500 ppm is 90 to 100%.

Question: For `Cc1ncc(Oc2cccc(C(F)(F)F)c2)c(C2=NOC[C@@H](Cc3ccc(C(F)F)cc3Cl)N2)n1` (racemic) [Compound I-033], which inhibition at 20 ppm [1] is on record?
Answer: Its inhibition at 20 ppm is 70 to 79%.

Question: And the chromatographic logP [2]?
Answer: The chromatographic logP was 4.02.

Question: What about the inhibition at 20 ppm [3] of the same molecule?
Answer: The inhibition at 20 ppm was 90 to 100%.

Question: What about the pest or weed control at 500 ppm [4] of the same molecule?
Answer: Its pest or weed control at 500 ppm is 90 to 100%.

Question: And the pest or weed control at 500 ppm [5]?
Answer: Its pest or weed control at 500 ppm is 90 to 100%.

Question: And the inhibition at 20 ppm [6]?
Answer: Its inhibition at 20 ppm is 90 to 100%.

Question: And the inhibition at 20 ppm [7]?
Answer: Its inhibition at 20 ppm is 90 to 100%.

Question: And the pest or weed control at 500 ppm [8]?
Answer: The pest or weed control at 500 ppm was 80 to 89%.
